According to US11667621B2, “Antiestrogen compounds” (STEVENS INSTITUTE OF TECHNOLOGY, priority 2018, dated 2023):
Where a chain is given by its changes, count along the chain named.

Columns and labels:
CRISPR KI D538G = target: T1, CRISPR KI D538G (Homo sapiens, UniProt P03372, D538G); assay: Luciferase assay, CRISPR KI D538G clones; format: cell-based; conditions: for CRISPR KI (% Inhibition) D538G cl. 50: clone 50; for CRISPR KI (% Inhibition) D538G cl. 65: clone 65
T1 construct: endogenous in cells; host or cells: CRISPR knock-in clones (cl. 50, cl. 65)
T1 sequence (P03372 1-595 D538G): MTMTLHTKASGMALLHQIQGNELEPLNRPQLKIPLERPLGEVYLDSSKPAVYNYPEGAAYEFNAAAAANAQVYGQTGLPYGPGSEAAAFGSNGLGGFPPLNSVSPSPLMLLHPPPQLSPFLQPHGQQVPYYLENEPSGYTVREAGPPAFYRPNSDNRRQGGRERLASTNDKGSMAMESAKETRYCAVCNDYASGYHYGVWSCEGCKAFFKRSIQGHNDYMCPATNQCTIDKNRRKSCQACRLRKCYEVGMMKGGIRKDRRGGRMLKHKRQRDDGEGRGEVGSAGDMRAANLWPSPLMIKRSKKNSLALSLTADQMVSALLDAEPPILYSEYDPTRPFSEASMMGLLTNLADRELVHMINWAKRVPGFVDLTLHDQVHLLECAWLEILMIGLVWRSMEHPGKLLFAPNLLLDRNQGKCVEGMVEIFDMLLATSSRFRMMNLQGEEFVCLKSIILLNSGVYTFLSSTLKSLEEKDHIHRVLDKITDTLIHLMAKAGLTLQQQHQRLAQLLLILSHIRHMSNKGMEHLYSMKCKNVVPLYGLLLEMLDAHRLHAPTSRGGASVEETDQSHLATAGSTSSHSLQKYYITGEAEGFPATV
Experimental: (§1) Luciferase assays were performed to determine the efficacy of the example compounds at inhibiting ER or its mutants' ability to activate transcription of genes.
(§2) Cells were plated at a density of 0.15×10^6 per well of 24 well plates one day prior to transfection. Cells were transfected with 125 ng (per well) of HA-ERα wild type or mutants, 315 ng (per well) of 3×-ERE-TATA-Luciferase reporter and 50 ng (per well) of pRL-TK Renilla Luciferase plasmid, using Xtremegene (Roche). The cells were treated with the various compounds or Fulvestrant at the indicated doses a day after transfection for 24 hours and luciferase activities were determined using the Dual-Luciferase® Reporter Assay System (Promega) according to manufacturer's instructions. Luciferase bioluminescence measurements were performed with the Veritas™ Microplate Luminometer (Promega). All experiments were conducted in triplicate and the Firefly luciferase activity was normalized with the Renilla luciferase activity of each sample.

[1] = Cell proliferation assay (WST-1), 6-day exposure; format: cell-based; conditions: 144 h, read-out: Antiproliferation IC50
Experimental: Cell proliferation assay: WST-1 assay (Roche, Basel, Switzerland) was used to quantify cell viability after a 6-day exposure to compounds, as described in Gong et al. Mol. Cell. Endocrinol. 2016, 437, 190-200. Absorbance was measured at 450 nm using a VICTOR X5 PerkinElmer 2030 Multilabel Plate Reader, and cell proliferation values represent signal from compound-treated samples relative to vehicle-treated controls. All assays were performed in triplicate, and the values shown are the average SD of 2-3 independent experiments.

[2] = target: T2, full length human estrogen receptor a (Homo sapiens, UniProt P03372); assay: Competitive radiometric binding assay (RBA), tritiated estradiol tracer; conditions: relative to estradiol = 100; average SD of 2-3 determinations
T2 construct: purified, full-length human estrogen receptor a from Invitrogen; purchased Invitrogen
T2 sequence (P03372 1-595): T1 sequence (P03372 1-595 D538G) with G538D
Experimental: Tritiated estradiol was obtained from Perkin Elmer and purified, full-length human estrogen receptor a from Invitrogen.
Competitive radiometric binding assays (RBA) were performed on 96-well microtiter filter plates (Millipore), using full length human estrogen receptor a, with tritiated estradiol as tracer, as previously described (Carlson K E, Choi I, Gee A, Katzenellenbogen B S, Katzenellenbogen J A. Altered ligand binding properties and enhanced stability of a constitutively active estrogen receptor: evidence that an open pocket conformation is required for ligand interaction. Biochemistry 1997, 36(48), 14897-14905). After incubation on ice for 18-24 h, ERα-bound tracer was absorbed onto hydroxyapatite (BioRad), washed with buffer, and measured by scintillation counting. RBA values are the average SD of 2-3 determinations.

CRISPR KI Y537S = target: T3, CRISPR KI Y537S (Homo sapiens, UniProt P03372, Y537S); assay: Luciferase assay, CRISPR KI Y537S clones; format: cell-based; design: concentration or dose not given beside the values; conditions: for CRISPR KI (% Inhibition) Y537S cl. 4: clone 4; for CRISPR KI (% Inhibition) Y537S cl. 24: clone 24
T3 construct: endogenous in cells; host or cells: CRISPR knock-in clones (cl. 4, cl. 24)
T3 sequence (P03372 1-595 Y537S): T1 sequence (P03372 1-595 D538G) with Y537S, G538D
Experimental: as §1, §2

Compound | CRISPR KI (% Inhibition) D538G cl. 50 (CRISPR KI D538G) [%] | CRISPR KI (% Inhibition) D538G cl. 65 (CRISPR KI D538G) [%] | IC50 [1] [nM] | RBA (estradiol = 100) [2] | CRISPR KI (% Inhibition) Y537S cl. 4 (CRISPR KI Y537S) [%] | CRISPR KI (% Inhibition) Y537S cl. 24 (CRISPR KI Y537S) [%]
O=C(NCCCCOc1ccc(C(=C2C3CC4CC(C3)CC2C4)c2ccc(O)cc2)cc1)[C@H]1C[C@@H]2C=C[C@H]1C2 [Example 9, (1R, 2S, 4R)—N-(4-(4-(Adamantan-2-ylidene(4-hydroxyphenyl)methyl)phenoxy)-butyl)bicyclo[2.2.1]hept-5-ene-2-carboxamide] | 34 | 72 | 9 | 37 ± 0.3 | −369 | −384
O=C(NCCCCOc1ccc(C(=C2C3CC4CC(C3)CC2C4)c2ccc(O)cc2)cc1)C1CCC1 [Example 10, N-(4-(4-(Adamantan-2-ylidene(4-hydroxyphenyl)methyl)phenoxy)butyl)-cyclobutanecarboxamide] | 19 | 65 | 3 | 70 ± 1 | – | −496
CC12CC3CC(C)(C1)CC(C(=O)NCCCCOc1ccc(C(=C4C5CC6CC(C5)CC4C6)c4ccc(O)cc4)cc1)(C3)C2 [Example 7, N-(4-(4-(Adamantan-2-ylidene(4-hydroxyphenyl)methyl)phenoxy)butyl)-3,5-dimethyladamantane-1-carboxamide] | 15 | 44 | 5 | 6.0 ± 0.1 | −70 | −64
O=C(NCCCCOc1ccc(C(=C2C3CC4CC(C3)CC2C4)c2ccc(O)cc2)cc1)C12CC3CC(CC1C3)C2 [Example 8, N-(4-(4-((Adamantan-2-ylidene)(4-hydroxyphenyl)methyl)phenoxy)butyl)-hexahydro-2,5-methanopentalene-3a(1H)-carboxamide] | 39 | 78 | 12 | 17 ± 2 | −387 | −249
CC(C)(C)OC(=O)N[C@@H](Cc1c[nH]c2ccccc12)C(=O)NCCCCOc1ccc(C(=C2C3CC4CC(C3)CC2C4)c2ccc(O)cc2)cc1 [Example 1, (S)-tert-Butyl (1-((4-(4-(adamantan-2-ylidene(4-hydroxyphenyl)methyl)-phenoxy)butyl)amino)-3-(1H-indol-3-yl)-1-oxopropan-2-yl)carbamate] | 15 | 71 | 16 | 20 ± 6 | −74 | −34
O=C(NCCCCOc1ccc(C(=C2C3CC4CC(C3)CC2C4)c2ccc(O)cc2)cc1)[C@H]1CC[C@H](C(F)(F)F)CC1 [Example 14, (trans)-N-(4-(4-(Adamantan-2-ylidene(4-hydroxyphenyl)methyl)phenoxy)-butyl)-4-(trifluoromethyl)cyclohexanecarboxamide] | 67 | 73 | 0.5 | 10 ± 0.4 | −342 | −421
O=C(NCCCCOc1ccc(C(=C2C3CC4CC(C3)CC2C4)c2ccc(O)cc2)cc1)C1CCC(F)(F)CC1 [Example 13, N-(4-(4-(Adamantan-2-ylidene(4-hydroxyphenyl)methyl)phenoxy)butyl)-4,4-difluorocyclohexanecarboxamide] | 32 | 77 | 4 | 30 ± 0.1 | −334 | −327
O=C(NCCCCOc1ccc(C(=C2C3CC4CC(C3)CC2C4)c2ccc(O)cc2)cc1)C1CCCCCC1 [Example 12, N-(4-(4-(Adamantan-2-ylidene(4-hydroxyphenyl)methyl)phenoxy)butyl)-cycloheptanecarboxamide] | 36 | 80 | 5 | 30 ± 5 | −232 | −199
O=C(NCCCCOc1ccc(C(=C2C3CC4CC(C3)CC2C4)c2ccc(O)cc2)cc1)C1CCCCC1 [Example 11, N-(4-(4-(Adamantan-2-ylidene(4-hydroxyphenyl)methyl)phenoxy)butyl)-cyclohexanecarboxamide] | 74 | 84 | 0.6 | 28 ± 6 | −62 | −10
O=C(NCCCCOc1ccc(C(=C2C3CC4CC(C3)CC2C4)c2ccc(O)cc2)cc1)C12CC3CC(CC(C3)C1)C2 [Example 6, N-(4-(4-(Adamantan-2-ylidene(4-hydroxyphenyl)methyl)phenoxy)-butyl)adamantane-1-carboxamide] | 68 | 73 | 13 | 11 ± 3 | −187 | −108
